Assay [1] has as its target T1, human muscarinic M3 receptor (Homo sapiens, UniProt P20309).
T1 construct: purchased Perkin Elmer; host or cells: CHO-K1 cells (membranes)
Description: Human muscarinic M3 receptor binding assay ([3H]-NMS, CHO-K1 membranes). The method, then:
Test 2: Human Muscarinic M1, M2, M3, M4 and M5 Receptors Binding Assays
The study of binding to human muscarinic M1, M2, M3, M4 and M5 receptors was performed using commercial membranes (Perkin Elmer) prepared from CHO-K1 cells. Radioligand binding experiments were conducted in 96 polypropylene well plates in a total volume of 200 μl. All reagents were dissolved in assay binding buffer (PBS with calcium and magnesium, SIGMA), except compounds that were dissolved in DMSO 100%. Non-specific binding (NSB) was measured in the presence of 1 μM atropine. [3H]-NMS was used as the radioligand at a concentration of 1 nM for M2, M3 and M5 and 0.3 nM for M1 and M4. [3H]-NMS and antagonists were incubated with membranes that express human muscarinic receptors M1, M2, M3, M4 and M5 at concentrations of 8.1, 10, 4.9, 4.5 and 4.9 μg/well, respectively. After an incubation period of two hours with gentle shaking, 150 μl of the reaction mix were transferred to 96 GF/C filter plates (Millipore), previously treated with wash buffer (Tris 50 mM; NaCl 100 mM; pH:7.4), containing 0.05% PEI (Sigma) during one hour. Bound and free [3H]-NMS were separated by rapid vacuum filtration in a manifold from Millipore and washed four times with ice cold wash buffer. After drying 30 min, 30 μl of OPTIPHASE Supermix were added to each well and radioactivity quantified using a Microbeta microplate scintillation counter.
The affinity of each test compound to the receptors was determined by using ten different concentrations ran in duplicate. IC50s were calculated using Activity Base software from IDBS and the four parameters-log equation.

Assay [2] has as its target T2, human adrenergic beta2 receptor (Homo sapiens, UniProt P07550).
T2 construct: purchased Perkin Elmer; host or cells: Sf9 cells (membranes)
Description: Human adrenergic β2 receptor binding assay (3H-CGP12177, Sf9 membranes). The protocol: Test 1: Human Adrenergic β1 and β2 Receptor Binding Assays
The study of binding to human adrenergic beta1 and beta2 receptors was performed using commercial membranes prepared from Sf9 cells where they are overexpressed (Perkin Elmer). The membrane suspensions (16 μg/well for beta1 and 5 μg/well for beta2) in assay buffer (75 mM Tris/HCl with 12.5 mM MgCl2 and 2 mM EDTA pH=7.4) were incubated with 0.14 or 0.6 nM of 3H-CGP12177 (Amersham) for beta 1 and beta 2 receptors respectively in a final volume of 250 μl, in GFC Multiscreen 96 well plates (Millipore) previously treated with assay buffer containing 0.3% PEI (Sigma). Non specific binding was measured in the presence of 1 μM propanolol. Incubation was maintained for 60 minutes at room temperature and with gentle shaking. The binding reactions were terminated by filtration and washing with 2.5 volumes of Tris/HCl 50 mM pH=7.4. The affinity of each test compound to the receptor was determined by using ten different concentrations ran in duplicate. IC50s were calculated using Activity Base software from IDBS and the four parameters-log equation.

Setting [3] is: membranes from CHO-K1 cells expressing human M3, 1 nM [3H]-NMS, read-out: Binding IC50, M3.
Setting [4] is: membranes from Sf9 cells overexpressing human beta2, 0.6 nM 3H-CGP12177, read-out: Binding IC50, β2.

Where two headings read alike, the source gives them in different places.

T1 sequence (P20309 whole entry): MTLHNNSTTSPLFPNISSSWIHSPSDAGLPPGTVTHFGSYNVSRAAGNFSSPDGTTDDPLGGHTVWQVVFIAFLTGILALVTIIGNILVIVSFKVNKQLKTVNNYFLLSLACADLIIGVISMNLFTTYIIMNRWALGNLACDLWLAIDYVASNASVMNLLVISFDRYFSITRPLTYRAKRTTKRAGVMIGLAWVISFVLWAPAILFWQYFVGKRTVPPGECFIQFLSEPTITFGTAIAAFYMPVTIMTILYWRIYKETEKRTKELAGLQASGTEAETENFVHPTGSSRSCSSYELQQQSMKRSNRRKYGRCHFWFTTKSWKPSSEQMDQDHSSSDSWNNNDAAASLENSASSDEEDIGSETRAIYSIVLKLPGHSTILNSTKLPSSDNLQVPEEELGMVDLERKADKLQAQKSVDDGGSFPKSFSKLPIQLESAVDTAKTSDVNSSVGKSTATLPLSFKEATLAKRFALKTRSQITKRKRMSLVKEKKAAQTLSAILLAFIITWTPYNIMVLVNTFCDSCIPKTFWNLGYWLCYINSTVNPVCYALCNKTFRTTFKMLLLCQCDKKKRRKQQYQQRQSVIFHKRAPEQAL

Turning to `CN(CCCn1c(=O)oc2cc(CNC[C@H](O)c3ccc(O)c4[nH]c(=O)ccc34)ccc21)[C@H]1CC[C@H](OC(=O)C(O)(c2cccs2)c2cccs2)CC1` [Example 1, trans-4-[{3-[6-({[(2R)-2-hydroxy-2-(8-hydroxy-2-oxo-1,2-dihydroquinolin-5-yl)ethyl]amino}methyl)-2-oxo-1,3-benzoxazol-3(2H)-yl]propyl}(methyl)amino]cyclohexyl hydroxy(di-2-thienyl)acetate, dihydrofluoride], the IC50 (usually the concentration at which inhibition is half-maximal) in assay [1] (setting [3]) came to 0.3 nM; in assay [2] (setting [4]), 140 nM. Consider `CN(CCN(C)[C@H]1CC[C@H](OC(=O)C(O)(c2cccs2)c2cccs2)CC1)C(=O)COc1ccc(CNC[C@H](O)c2ccc(O)c3[nH]c(=O)ccc23)cc1` [Example 6, trans-4-[{2-[{[4-({[(2R)-2-hydroxy-2-(8-hydroxy-2-oxo-1,2-dihydroquinolin-5-yl)ethyl]amino}methyl)phenoxy]acetyl}(methyl)amino]ethyl}(methyl)amino]cycloh exyl hydroxy(di-2-thienyl)acetate dihydrofluoride], for which the figures for the IC50 in assay [1] (setting [3]) and in assay [2] (setting [4]) were 1.4 nM and 34 nM, respectively. For `CN(CCCn1ccc2cc(CNC[C@H](O)c3ccc(O)c4[nH]c(=O)ccc34)ccc21)[C@H]1CC[C@H](OC(=O)C(O)(c2cccs2)c2cccs2)CC1` (relative stereo) [Example 4, trans-4-[{3-[5-({[(2R)-2-hydroxy-2-(8-hydroxy-2-oxo-1,2-dihydroquinolin-5-yl)ethyl]amino}methyl)-1H-indol-1-yl]propyl}(methyl)amino]cyclohexyl hydroxy(di-2-thienyl)acetate dihydrofluoride] the same measures were 0.6 nM and 220 nM. For `CN(CCCc1nc(-c2ccc(CNC[C@H](O)c3ccc(O)c4[nH]c(=O)ccc34)cc2)no1)[C@H]1CC[C@H](OC(=O)C(O)(c2cccs2)c2cccs2)CC1` [Example 5, trans-4-[(3-{3-[4-({[(2R)-2-hydroxy-2-(8-hydroxy-2-oxo-1,2-dihydroquinolin-5-yl)ethyl]amino}methyl)phenyl]-1,2,4-oxadiazol-5-yl}propyl)(methyl)amino]cyclohexyl hydroxy(di-2-thienyl)acetate dihydrofluoride], in that order: 0.4 nM and 2.7 nM.

As to `CN(CCCn1c(=O)oc2cc(CNC[C@H](O)c3ccc(O)c4[nH]c(=O)ccc34)ccc21)[C@H]1CC[C@H](OC(=O)C2(C)c3ccccc3Oc3ccccc32)CC1` [Example 15, trans-4-[{3-[6-({[(2R)-2-hydroxy-2-(8-hydroxy-2-oxo-1,2-dihydroquinolin-5-yl)ethyl]amino}methyl)-2-oxo-1,3-benzoxazol-3(2H)-yl]propyl}(methyl)amino]cyclohexyl 9-methyl-9H-xanthene-9-carboxylate dihydrofluoride], the IC50 in assay [1] (setting [3]) was determined as 1 nM; in assay [2] (setting [4]) it was 1.5 nM. Consider `CN(CCCn1nnc2cc(CNC[C@H](O)c3ccc(O)c4[nH]c(=O)ccc34)ccc21)[C@H]1CC[C@H](OC(=O)[C@](O)(c2cccs2)C2CCCC2)CC1` [Example 17, trans-4-[{3-[5-({[(2R)-2-hydroxy-2-(8-hydroxy-2-oxo-1,2-dihydroquinolin-5-yl)ethyl]amino}methyl)-1H-1,2,3-benzotriazol-1-yl]propyl}(methyl)amino]cyclohexyl (2S)-cyclopentyl(hydroxy)-2-thienylacetate dihydrofluoride], for which the IC50 in assay [1] (setting [3]) turned out to be 0.6 nM; in assay [2] (setting [4]), 13 nM. Regarding “trans-4-{[2-({2-[4-(2-{[(2R)-2-hydroxy-2-(8-hydroxy-2-oxo-1,2-dihydroquinolin-5-yl)ethyl]amino}propyl)phenoxy]acetyl}amino)ethyl]amino}cyclohexyl hydroxy(di-2-thienyl)acetate dihydrofluoride [Example 20]”, the half-maximal inhibitory concentration (IC50) in assay [1] (setting [3]) came out at 3.6 nM; in assay [2] (setting [4]), 3.1 nM. Take `COc1cc(OCC(=O)N(C)CCN(C)[C@H]2CC[C@H](OC(=O)C(O)(c3cccs3)c3cccs3)CC2)c(Cl)cc1CNC[C@H](O)c1ccc(O)c2[nH]c(=O)ccc12` [Example 10, trans-4-[{2-[{[2-chloro-4-({[(2R)-2-hydroxy-2-(8-hydroxy-2-oxo-1,2-dihydroquinolin-5-yl)ethyl]amino}methyl)-5-methoxyphenoxy]acetyl}(methyl)amino]ethyl}(methyl)amino]cyclohexyl hydroxy(di-2-thienyl)acetate dihydrofluoride]: the IC50 in assay [1] was determined as 0.4 nM; in assay [2], 5.7 nM. As to “trans-4-[{3-[5-({[(2R)-2-hydroxy-2-(5-hydroxy-3-oxo-3,4-dihydro-2H-1,4-benzoxazin-8-yl)ethyl]amino}methyl)-1H-1,2,3-benzotriazol-1-yl]propyl}(methyl)amino]cyclohexyl (2S)-cyclopentyl(hydroxy)-2-thienylacetate dihydrofluoride [Example 18]”, the IC50 in assay [1] (setting [3]) is 0.4 nM. Turning to `COc1cc(-c2noc(CCCN(C)[C@H]3CC[C@H](OC(=O)C(O)(c4cccs4)c4cccs4)CC3)n2)c(Cl)cc1CNC[C@H](O)c1ccc(O)c2[nH]c(=O)ccc12` [Example 9, trans-4-[(3-{3-[2-chloro-4-({[(2R)-2-hydroxy-2-(8-hydroxy-2-oxo-1,2-dihydroquinolin-5-yl)ethyl]amino}methyl)-5-methoxyphenyl]-1,2,4-oxadiazol-5-yl}propyl)(methyl)amino]cyclohexyl hydroxy(di-2-thienyl)acetate dihydrofluoride], the values for the IC50 in assay [1] and in assay [2] were 0.2 nM and 2.2 nM, respectively. For `CN(CCNC(=O)COc1ccc(CNC[C@H](O)c2ccc(O)c3[nH]c(=O)ccc23)cc1)[C@H]1CC[C@H](OC(=O)C(O)(c2cccs2)c2cccs2)CC1` (relative stereo) [Example 8, trans-4-[[2-({[4-({[(2R)-2-hydroxy-2-(8-hydroxy-2-oxo-1,2-dihydroquinolin-5-yl)ethyl]amino}methyl)phenoxy]acetyl}amino)ethyl](methyl)amino]cyclohexyl hydroxy(di-2-thienyl)acetate dihydrofluoride], the results for the IC50 in assay [1] (setting [3]) and in assay [2] (setting [4]) were 2.2 nM and 18 nM, respectively.

For `CN(CCCn1c(=O)sc2cc(CNC[C@H](O)c3ccc(O)c4[nH]c(=O)ccc34)ccc21)[C@H]1CC[C@H](OC(=O)C(O)(c2cccs2)c2cccs2)CC1` [Example 11, trans-4-[{3-[6-({[(2R)-2-hydroxy-2-(8-hydroxy-2-oxo-1,2-dihydroquinolin-5-yl)ethyl]amino}methyl)-2-oxo-1,3-benzothiazol-3(2H)-yl]propyl}(methyl)amino]cyclohexyl hydroxy(di-2-thienyl)acetate dihydrofluoride], the IC50 was 0.5 nM in assay [1] (setting [3]) and 4.2 nM in assay [2] (setting [4]).

With “trans-4-[{3-[6-(2-{[(2R)-2-hydroxy-2-(8-hydroxy-2-oxo-1,2-dihydroquinolin-5-yl)ethyl]amino}ethyl)-2-oxo-1,3-benzoxazol-3(2H)-yl]propyl}(methyl)amino]cyclohexyl hydroxy(di-2-thienyl)acetate dihydrofluoride [Example 19]”, the IC50 in assay [1] (setting [3]) stood at 0.8 nM; in assay [2] (setting [4]), 62 nM.

`CN(CCCn1c(=O)[nH]c2cc(CNC[C@H](O)c3ccc(O)c4[nH]c(=O)ccc34)ccc21)[C@H]1CC[C@H](OC(=O)C(O)(c2cccs2)c2cccs2)CC1` [Example 2, trans-4-[{3-[5-({[(2R)-2-hydroxy-2-(8-hydroxy-2-oxo-1,2-dihydroquinolin-5-yl)ethyl]amino}methyl)-2-oxo-2,3-dihydro-1H-benzimidazol-1-yl]propyl}(methyl)amino]cyclohexyl hydroxy(di-2-thienyl)acetate dihydrofluoride]: the figures for the IC50 in assay [1] and in assay [2] were 0.4 nM and 120 nM, respectively.
